Reference: US10689362B2, “Quinoxaline compounds as type III receptor tyrosine kinase inhibitors” (Development Center for Biotechnology, priority 2016, dated 2020)

What was measured:
FLT3 kinase = FLT3 kinase (Homo sapiens (Human), UniProt P36888); assay: FLT3 kinase assay (radiometric); assay type: biochemical; details: bound
Summary of the method: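 Recombinant FLT3 (5 ng) phosphorylating poly(Glu4:Tyr1) (2 μg) with 10 μM ATP plus [^33P]-ATP in MOPS pH 7.0 buffer, 4% DMSO final, 60 min at 30° C. Reaction stopped with phosphoric acid, filter-captured and scintillation-counted; IC50 derived from dose-response.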

[1] = system: THP-1 human acute monocytic leukemia cell harboring NRAS G12D mutation; assay: THP-1 cell proliferation assay (counter screen, CellTiter-96); assay type: cell-based; details: Cytotoxicity, THP-1 cells (counter screen), 72 hours
Summary of the method: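 THP-1 cells, RTK-independent owing to NRAS G12D, seeded at 5000/well, incubated overnight at 37 °C/5% CO2, then exposed to increasing compound concentrations for 72 h. CellTiter96 AQueous One reagent added for 4 h; viability from absorbance at 490 nm.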

[2] = system: MV4-11 human acute myeloid leukemia cell with FLT3-ITD mutation; assay: MV4-11 cell proliferation assay (CellTiter-96); assay type: cell-based; details: Cytotoxicity, MV4-11 cells, 72 hours
Summary of the method: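 MV4-11 cells (FLT3-ITD, FLT3-dependent growth) seeded at 6500 cells/well, incubated overnight at 37° C., 5% CO2, then exposed to increasing compound concentrations for 72 hours. Viability read by CellTiter96 AQueous One reagent (4 hours), absorbance at 490 nm.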

PDGFRβ kinase = PDGFRβ kinase (Homo sapiens (Human), UniProt P09619); assay: PDGFRβ kinase assay (radiometric); assay type: biochemical
Summary of the method: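 Radiometric assay: recombinant PDGFRβ with poly(Glu4:Tyr1) in MOPS pH 7.0 buffer containing Mg2+/Mn2+, 10 μM ATP plus [33P]-ATP, and compound at 4% DMSO final. Incubated 60 min at 30° C, stopped with phosphoric acid, filter-captured and scintillation-counted. IC50 from curve fitting.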

[3] = system: CSF-1-dependent M-NFS-60 mouse myeloid leukemia cell; assay: M-NFS-60 cell proliferation assay (CellTiter-96); assay type: cell-based; details: Cytotoxicity, M-NFS-60 cells, 72 hours
Summary of the method: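 CSF-1-dependent M-NFS-60 cells seeded at 2000 cells/well, settled overnight at 37 °C, 5% CO2, then exposed to increasing compound concentrations for 72 h. Viability read by CellTiter 96 AQueous One reagent (4 h) at 490 nm absorbance.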

CSF-1R kinase = CSF-1R kinase (Homo sapiens (Human), UniProt P07333); assay: CSF-1R kinase assay (AlphaScreen); assay type: biochemical; details: class symbol
Protocol: Inhibition of CSF-1R kinase activity by a test compound disclosed herein was estimated by AlphaScreen (PerkinElmer). […] Reactions were incubated at 30° C. for 45 min and stopped by adding 5 μL of 50 mM EDTA. Analysis of resulting product using an AlphaScreen kit, and counted with Enspire Alpha (PerkinElmer). […] The IC50 values of quinoxaline compounds of this invention against CSF-1R kinase were determined using the GraphPad Prism 5 software.

[4] = system: osteoclast precursors (osteoclast differentiation); assay: Osteoclast tartrate-resistant acid phosphatase assay; assay type: cell-based; details: 168 h, at 1 μM treatment, 7 days, RANKL and M-CSF, read-out: inhibition activity against osteoclast differentiation
Protocol: A serial dilution of test compound was dispensed into a 96-well black clear bottom plate. Compound was diluted by the addition of DMEM media supplemented with 10% characterized fetal bovine serum. Diluted compound was transferred to a 96-well black clear bottom plate. Three thousand osteoclast precursors (Lonza, Walkersville, Md.) were added per well in growth medium containing Receptor Activator of Nuclear Factor Kappa-beta ligand (RANKL) and M-CSF. […] At the end of the incubation period, 50 μL of supernatant from each well was transferred to a clear 96-well plate. Tartrate-resistant acid phosphatase activity in the supernatant samples was determined using an acid phosphatase assay kit (Sigma, St. Louis, Mo.). Absorbance was measured at 550 nm using a plate reader. […] The Inhibition activity against osteoclast differentiation for each compound at 1 μM treatment in duplicate was measured.

[5] = system: Kasumi-1 human acute myeloid leukemia cell with c-KIT N822K activating mutation; assay: Kasumi-1 cell proliferation assay (CellTiter-96); assay type: cell-based; details: Cytotoxicity, Kasumi-1 cells, 72 hours
Summary of the method: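 Kasumi-1 cells, seeded at 64000 cells/well and incubated overnight at 37 °C, were exposed to increasing compound concentrations for 72 h. Viability was measured by CellTiter96 AQueous One reagent (4 h) and absorbance at 490 nm.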

c-KIT kinase = c-KIT kinase (Homo sapiens (Human), UniProt P10721); assay: c-KIT kinase assay (radiometric); assay type: biochemical
Summary of the method: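 Recombinant c-Kit (20 ng) with 2 μg Poly-(Glu4:Tyr1) in MOPS pH 7.0 buffer with MgCl2/MnCl2, 10 μM ATP plus [^33P]-ATP, 4% DMSO final, 60 min at 30° C. Stopped with phosphoric acid, filter-captured and scintillation counted; IC50 from curve fit.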

Chain of PDGFRβ kinase (P09619 33-1106): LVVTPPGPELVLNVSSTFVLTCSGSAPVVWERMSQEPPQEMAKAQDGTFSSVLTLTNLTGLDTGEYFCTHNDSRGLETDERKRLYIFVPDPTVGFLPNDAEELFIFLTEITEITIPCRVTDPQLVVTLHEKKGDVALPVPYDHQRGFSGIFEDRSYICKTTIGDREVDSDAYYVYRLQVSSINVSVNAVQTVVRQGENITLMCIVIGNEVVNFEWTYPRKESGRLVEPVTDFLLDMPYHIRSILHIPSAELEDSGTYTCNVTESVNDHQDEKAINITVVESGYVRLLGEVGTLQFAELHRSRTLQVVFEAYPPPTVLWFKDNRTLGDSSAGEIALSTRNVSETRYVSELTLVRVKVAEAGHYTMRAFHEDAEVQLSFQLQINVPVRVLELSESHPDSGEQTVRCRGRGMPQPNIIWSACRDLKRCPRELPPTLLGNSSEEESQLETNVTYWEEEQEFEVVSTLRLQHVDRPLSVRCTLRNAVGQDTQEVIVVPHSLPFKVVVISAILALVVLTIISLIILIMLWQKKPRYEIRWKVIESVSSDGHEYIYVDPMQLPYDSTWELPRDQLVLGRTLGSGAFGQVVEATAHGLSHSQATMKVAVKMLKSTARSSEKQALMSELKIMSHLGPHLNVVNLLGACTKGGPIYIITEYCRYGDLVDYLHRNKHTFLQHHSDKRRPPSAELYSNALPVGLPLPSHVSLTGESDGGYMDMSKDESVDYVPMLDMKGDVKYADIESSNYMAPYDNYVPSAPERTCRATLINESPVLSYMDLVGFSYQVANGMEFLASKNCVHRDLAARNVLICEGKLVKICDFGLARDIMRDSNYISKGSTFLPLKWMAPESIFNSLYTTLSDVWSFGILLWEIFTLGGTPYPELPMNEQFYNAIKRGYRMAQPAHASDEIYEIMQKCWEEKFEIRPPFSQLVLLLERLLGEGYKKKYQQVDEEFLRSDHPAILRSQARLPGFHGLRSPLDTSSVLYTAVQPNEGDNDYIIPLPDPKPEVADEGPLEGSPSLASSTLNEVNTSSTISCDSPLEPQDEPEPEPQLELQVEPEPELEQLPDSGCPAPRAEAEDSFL
Chain of CSF-1R kinase (P07333 20-972): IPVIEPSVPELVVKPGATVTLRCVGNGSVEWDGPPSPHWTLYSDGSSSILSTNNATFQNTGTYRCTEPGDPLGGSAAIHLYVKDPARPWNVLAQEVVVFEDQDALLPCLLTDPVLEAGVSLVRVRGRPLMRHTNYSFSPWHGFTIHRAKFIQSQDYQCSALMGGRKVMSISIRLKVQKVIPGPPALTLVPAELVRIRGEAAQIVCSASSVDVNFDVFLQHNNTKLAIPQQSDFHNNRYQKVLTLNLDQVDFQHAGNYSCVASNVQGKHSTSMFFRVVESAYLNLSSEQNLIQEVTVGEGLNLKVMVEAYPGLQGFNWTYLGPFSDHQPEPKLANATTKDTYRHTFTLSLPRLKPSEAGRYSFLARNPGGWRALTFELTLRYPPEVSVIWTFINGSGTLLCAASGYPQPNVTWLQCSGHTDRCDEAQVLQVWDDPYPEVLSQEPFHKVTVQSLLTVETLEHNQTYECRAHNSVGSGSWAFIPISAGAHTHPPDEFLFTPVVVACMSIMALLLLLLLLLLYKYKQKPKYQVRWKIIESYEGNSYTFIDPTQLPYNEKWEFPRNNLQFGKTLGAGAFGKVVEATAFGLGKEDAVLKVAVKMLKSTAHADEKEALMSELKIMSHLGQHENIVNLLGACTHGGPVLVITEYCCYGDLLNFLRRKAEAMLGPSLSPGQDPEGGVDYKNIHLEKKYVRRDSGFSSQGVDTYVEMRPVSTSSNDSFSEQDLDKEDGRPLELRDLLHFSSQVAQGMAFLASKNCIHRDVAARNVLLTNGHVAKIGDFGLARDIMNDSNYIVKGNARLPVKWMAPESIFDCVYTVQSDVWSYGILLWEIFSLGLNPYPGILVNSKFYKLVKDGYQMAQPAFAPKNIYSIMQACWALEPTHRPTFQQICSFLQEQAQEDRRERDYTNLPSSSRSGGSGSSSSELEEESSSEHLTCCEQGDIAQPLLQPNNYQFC
Chain of c-KIT kinase (P10721 26-976): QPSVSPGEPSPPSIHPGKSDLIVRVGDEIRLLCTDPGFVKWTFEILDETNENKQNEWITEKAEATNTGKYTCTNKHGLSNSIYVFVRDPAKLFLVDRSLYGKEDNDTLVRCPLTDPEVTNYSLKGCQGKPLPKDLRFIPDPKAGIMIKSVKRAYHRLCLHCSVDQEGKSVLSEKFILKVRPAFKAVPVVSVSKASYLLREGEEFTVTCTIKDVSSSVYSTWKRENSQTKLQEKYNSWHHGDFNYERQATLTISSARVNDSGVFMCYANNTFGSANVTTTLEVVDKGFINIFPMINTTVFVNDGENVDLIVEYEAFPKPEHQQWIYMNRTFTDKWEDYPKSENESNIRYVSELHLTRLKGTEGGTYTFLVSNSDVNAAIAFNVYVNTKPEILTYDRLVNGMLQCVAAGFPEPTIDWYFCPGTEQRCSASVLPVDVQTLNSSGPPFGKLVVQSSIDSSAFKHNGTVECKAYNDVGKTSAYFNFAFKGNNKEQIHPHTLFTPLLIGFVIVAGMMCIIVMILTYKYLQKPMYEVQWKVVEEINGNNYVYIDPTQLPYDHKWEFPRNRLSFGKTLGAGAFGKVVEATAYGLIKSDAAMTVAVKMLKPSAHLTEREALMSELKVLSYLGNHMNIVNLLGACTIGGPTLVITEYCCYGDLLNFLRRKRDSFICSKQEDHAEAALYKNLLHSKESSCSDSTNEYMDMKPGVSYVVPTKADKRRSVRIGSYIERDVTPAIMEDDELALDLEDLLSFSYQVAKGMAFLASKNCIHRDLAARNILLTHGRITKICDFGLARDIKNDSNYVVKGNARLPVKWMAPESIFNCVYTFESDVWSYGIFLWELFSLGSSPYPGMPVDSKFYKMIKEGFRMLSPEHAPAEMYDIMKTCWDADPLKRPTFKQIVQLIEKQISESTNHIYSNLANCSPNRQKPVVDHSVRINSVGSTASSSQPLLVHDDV
Chain of FLT3 kinase (P36888 27-993): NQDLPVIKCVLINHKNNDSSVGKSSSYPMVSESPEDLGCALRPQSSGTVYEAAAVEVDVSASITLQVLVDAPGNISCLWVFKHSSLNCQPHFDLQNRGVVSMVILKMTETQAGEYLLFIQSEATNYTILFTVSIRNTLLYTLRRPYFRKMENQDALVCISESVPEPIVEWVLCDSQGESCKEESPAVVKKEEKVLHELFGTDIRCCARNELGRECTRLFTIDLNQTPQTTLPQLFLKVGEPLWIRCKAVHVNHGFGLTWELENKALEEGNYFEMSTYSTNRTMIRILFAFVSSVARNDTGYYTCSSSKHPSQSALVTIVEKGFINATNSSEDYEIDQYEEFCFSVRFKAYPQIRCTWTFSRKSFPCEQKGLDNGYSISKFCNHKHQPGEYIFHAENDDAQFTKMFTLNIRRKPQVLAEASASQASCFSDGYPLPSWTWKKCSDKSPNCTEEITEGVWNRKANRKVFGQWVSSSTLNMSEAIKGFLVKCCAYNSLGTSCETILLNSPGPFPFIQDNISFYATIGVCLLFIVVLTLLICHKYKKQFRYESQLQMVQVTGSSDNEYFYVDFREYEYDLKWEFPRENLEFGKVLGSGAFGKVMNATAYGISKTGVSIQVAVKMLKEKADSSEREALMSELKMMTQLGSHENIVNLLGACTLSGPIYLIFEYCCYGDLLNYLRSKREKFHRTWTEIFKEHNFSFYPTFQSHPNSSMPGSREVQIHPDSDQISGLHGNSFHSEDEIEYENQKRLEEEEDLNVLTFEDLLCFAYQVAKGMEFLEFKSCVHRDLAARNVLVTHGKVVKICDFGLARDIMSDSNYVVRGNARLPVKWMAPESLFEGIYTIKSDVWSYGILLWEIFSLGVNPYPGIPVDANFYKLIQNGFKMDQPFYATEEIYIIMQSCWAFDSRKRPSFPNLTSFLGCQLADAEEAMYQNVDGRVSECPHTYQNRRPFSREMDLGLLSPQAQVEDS

Structure (SMILES) | IC50 (FLT3 kinase) [nM] | IC50 [1] [nM] | IC50 [2] [nM] | IC50 (PDGFRβ kinase; bound) [nM] | IC50 [3] [nM] | IC50 (CSF-1R kinase) [nM] | inhibition at 1 µM [4] [%] | IC50 [5] [nM] | IC50 (c-KIT kinase; class symbol) [nM] | IC50 (PDGFRβ kinase; class symbol) [nM] | IC50 (c-KIT kinase; bound) [nM]
COCc1ccc(COc2ccc(Nc3ccc4ncc(N5CCOCC5)nc4c3C#N)cc2OC)nc1 [Example 125, 6-((3-methoxy-4-((5-(methoxymethyl)pyridin-2-yl)methoxy)phenyl)amino)-3-morpholinoquinoxaline-5-carbonitrile] | > 1000 | > 10000 | > 10000 | > 1000 | 1000 to 10000 | < 100 | > 50 | < 300 | < 100 |  | 
COc1ccc(COc2ccc(Nc3ccc4ncc(N5CCOCC5)nc4c3C#N)cc2OC)cn1 [Example 50, 6-((3-methoxy-4-((6-methoxypyridin-3-yl)methoxy)phenyl)amino)-3-morpholinoquinoxaline-5-carbonitrile] | > 1000 | > 10000 | > 10000 | > 1000 | < 300 | < 100 | > 50 | 300 to 1000 | 100 to 300 |  | 
COc1ccc(COc2ccc(Nc3ccc4ncc(N5CCN(CCO)CC5)nc4c3C#N)cc2OC)cc1 [Example 66, 3-(4-(2-hydroxyethyl)piperazin-1-yl)-6-((3-methoxy-4-((4-methoxybenzyl)oxy)phenyl)amino)quinoxaline-5-carbonitrile] | > 1000 | > 10000 | 1000 to 10000 |  | < 300 | < 100 | > 50 | < 300 | < 100 | 300 to 1000 | 
COc1cc(Nc2ccc3ncc(N(C)C)nc3c2C#N)ccc1OCc1ccc(C)nc1 [Example 133, 3-(dimethylamino)-6-((3-methoxy-4-((6-methylpyridin-3-yl)methoxy)phenyl)amino)quinoxaline-5-carbonitrile] | > 1000 | > 10000 | > 10000 | > 1000 | < 300 | < 100 | > 50 | 300 to 1000 | < 100 |  | 
COc1cc(Nc2ccc3ncc(N4CCOCC4)nc3c2C#N)ccc1OCc1cccc(C#N)c1 [Example 65, 6-((4-((3-cyanobenzyl)oxy)-3-methoxyphenyl)amino)-3-morpholinoquinoxaline-5-carbonitrile] | > 1000 | > 10000 | > 10000 | > 1000 | < 300 | < 100 | > 50 | > 10000 | 100 to 300 |  | 
COc1ccc(COc2ccc(Nc3ccc4ncc(N5CCNCC5)nc4c3C#N)cc2OC)cn1 [Example 59, 6-((3-methoxy-4-((6-methoxypyridin-3-yl)methoxy)phenyl)amino)-3-(piperazin-1-yl)quinoxaline-5-carbonitrile] | > 1000 | 1000 to 10000 | 1000 to 10000 | > 1000 | < 300 | < 100 | > 50 | 300 to 1000 | 100 to 300 |  | 
COc1ccc(COc2ccc(Nc3ccc4ncc(NC(C)C)nc4c3C#N)cc2OC)cc1 [Example 17, 3-(isopropylamino)-6-((3-methoxy-4-((4-methoxybenzyl)oxy)phenyl)amino)quinoxaline-5-carbonitrile] | > 1000 | > 10000 | 1000 to 10000 | > 1000 | < 300 | < 100 | > 50 | 300 to 1000 | < 100 |  | 
COc1ccc(COc2ccc(Nc3ccc4ncc(N5CCC5)nc4c3C#N)cc2OC)cn1 [Example 86, 3-(azetidin-1-yl)-6-((3-methoxy-4-((6-methoxpyridin-3-yl)methoxy)phenyl)amino)quinoxaline-5-carbonitrile] | > 1000 | > 10000 | > 10000 | > 1000 | < 300 | < 100 | > 50 | 1000 to 10000 | 100 to 300 |  | 
COc1cc(Nc2ccc3ncc(N4CCOCC4)nc3c2C#N)ccc1OCc1ccc(C)s1 [Example 124, 6-((3-methoxy-4-((5-methylthiophen-2-yl)methoxy)phenyl)amino)-3-morpholinoquinoxaline-5-carbonitrile] | > 1000 | 1000 to 10000 | 1000 to 10000 | > 1000 | < 300 | < 100 | > 50 | 300 to 1000 | < 100 |  | 
COc1ccc(COc2ccc(Nc3ccc4ncc(N(C)C)nc4c3C#N)cc2OC)cc1C#N [Example 139, 6-((4-((3-cyano-4-methoxybenzyl)oxy)-3-methoxyphenyl)amino)-3-(dimethylamino)quinoxaline-5-carbonitrile] | > 1000 | > 10000 | > 10000 | > 1000 | < 300 | < 100 | > 50 | > 10000 | 100 to 300 |  | 
COc1cc(Nc2ccc3ncc(N4CCOCC4)nc3c2C#N)ccc1OCc1ccc(C(F)F)nc1 [Example 111, 6-((4-((6-(difluoromethyl)pyridin-3-yl)methoxy)-3-methoxyphenyl)amino)-3-morpholinoquinoxaline-5-carbonitrile] | > 1000 | > 10000 | 1000 to 10000 | > 1000 | < 300 | < 100 | > 50 | 300 to 1000 | 100 to 300 |  | 
COc1ccc(COc2ncc(Nc3ccc4ncc(N5CCOCC5)nc4c3C#N)cc2OC)cn1 [Example 144, 6-((5-methoxy-6-((6-methoxypyridin-3-yl)methoxy)pyridin-3-yl)amino)-3-morpholinoquinoxaline-5-carbonitrile] | > 1000 | > 10000 | > 10000 | > 1000 | < 300 | < 100 | > 50 | > 10000 |  |  | > 1000
COc1ccc(COc2ccc(Nc3ccc4ncc(N(C)C)nc4c3C#N)cc2OC)cn1 [Example 137, 3-(dimethylamino)-6-((3-methoxy-4-((6-methoxypyridin-3-yl)methoxy)phenyl)amino)quinoxaline-5-carbonitrile] | > 1000 | > 10000 | 1000 to 10000 | > 1000 | < 300 | < 100 | > 50 | 300 to 1000 | < 100 |  | 
COc1ccc(COc2ccc(Nc3ccc4ncc(N5CCOCC5)nc4c3C#N)cc2OC)cc1OC [Example 58, 6-((4-((3,4-dimethoxybenzyl)oxy)-3-methoxyphenyl)amino)-3-morpholinoquinoxaline-5-carbonitrile] | > 1000 | > 10000 | > 10000 |  | < 300 | < 100 | > 50 | < 300 | < 100 | 300 to 1000 | 
